Each structure is given as a SMILES string.

1 molecule from patent publication US20250388551A1, “COMPOUNDS INDUCING PRODUCTION OF PROTEINS BY IMMUNE CELLS” (UNIVERSITE PARIS CITE, priority 2022, published 2025) can be followed below.

Test [1] deals with resting mouse B cells from spleen of IL-10.eGFP mice. Kind of test: High throughput flow cytometry-based phenotypic screen for IL-10 inducers. It is filed as cell-based. As to conditions: 10 μM, LPS, 72 hours. As to the method:
Resting mouse B cells were isolated from spleen of IL-10.eGFP mice by magnetic depletion of CD43+ cells, and stimulated for 72 hours in 384-well plates in the presence of chemical compounds at 10 μM final. The chemical library originated from the Leibniz-Forschungsinstitut für Molekulare Pharmakologie (FMP) (Berlin, Germany). The frequency of IL-10-expressing B cells was then measured in each well by flow cytometry.

In test [2] the test system is resting mouse B cells. The experiment in a line: IL-10 expression in TLR-, CD40- and BCR-stimulated B cells by flow cytometry. The class given is cell-based. As to conditions: 0.25 μM, stimulation through TLR4, TLR7/8, TLR9, CD40, IgM, 72 hours. How it is done: Resting mouse B cells were isolated from spleen by magnetic depletion of CD43^+ cells and stimulated through TLR4, TLR7/8, TLR9, CD40, and IgM as indicated for 3 consecutive days. Cell culture medium was supplemented with DMSO-vehicle control, C3 or N6 at 0.25 μM. B cells from C57BL/6 mice were used to determine autofluorescence in eGFP channel and IL-10.eGFP-IL-6.tdTomato mice were used to monitor IL-10 expression by flow cytometry at 72 hours. The percentage of viable/singlets/CD19^+/IL-10^+ cells is shown. Data are presented as mean±SD. n≥3 independent experiments.
(In general: Flow cytometry measures light scatter and fluorescence of single cells or particles in a stream.)

Test [3] has as its system resting mouse B cells. Kind of test: Il10 mRNA expression in B cells (quantitative RT-PCR). The following applies: 0.25 μM. The class given is cell-based. How it is done: Resting mouse B cells were isolated from spleen by magnetic depletion of CD43^+ cells. B cells were incubated with DMSO-vehicle control or N6 (0.25 μM), as such, or in combination with CpG. mRNA was extracted at different time-points and il10/actin ratio was determined.
Resting mouse B cells were isolated from spleen by magnetic depletion of CD43^+ cells. B cells were incubated with DMSO vehicle control, or C3 or N6 at 0.25 μM for the indicated time, and Il10 mRNA induction was quantified by quantitative RT-PCR.

For test [4], the system named is mouse B cell subsets (CD19+, follicular, marginal zone, blood B cells). The experiment in a line: IL-10 expression, IL-10 secretion and plasma cell generation in B cell subsets, CpG-based culture. The following applies: 0.25 μM, 3 days. From the text: Resting mouse B cells were isolated from spleen by magnetic depletion of CD43^+ cells and total CD19^+ B cells, follicular B cells (CD19^+/CD21^low/−/CD23^high/CD1d^low) and marginal zone B cells (CD19^+/CD21^high/CD23^low/−/CD1d^hi) were purified by FACS. Total CD19^+ blood B cells were directly purified by FACS after red blood cell lysis. […] Generation of B220^low/CD138^high plasma cells was also quantified by flow cytometry. Data are presented as mean±SD. n≥3 independent experiments.

Take `CC(=O)Nc1ccc(C(=O)Nc2ccc(-c3nc4cc(NC(=O)c5ccc(NC(C)=O)cc5)ccc4[nH]3)cc2)cc1` [Compound C3]: the “IL-10 expression in stimulated B cells” value in test [1] is on record as “markedly increases IL-10 expression”. Further, the “IL-10 expression in B cells (percentage of IL-10+ cells)” value in test [2] is “increase IL-10 expression in B cells across a broad range of stimulation protocols”. Besides, in test [3], the “Il10 transcription in unstimulated B cells” value is “Increase Il10 Transcription”. Moreover, the “differentiation of B cells into plasma cells (B220low/CD138high)” value in test [4] is recorded as “increase”. Besides, in test [4] (cell-free supernatants), the “amount of IL-10 produced by stimulated B cells” value is “increase”. Also, in test [4] (flow cytometry), the “proportion of activated B cells expressing IL-10” value was “increase”.
